Test results from patent US20250235455A1, “AQUEOUS TICAGRELOR SOLUTIONS, METHOD OF MANUFACTURING AND USES” (HYLORIS DEVELOPMENTS SA, priority 2022, published 2025).
≈ marks a conversion by molar mass, not a printed value. Where two headings read alike, the source gives them in different places.

Key:
Assay type in all cases: physicochemical
[1] = Storage stability of ticagrelor 6 mg/ml in HPβCD 40% w/w, phosphate buffer pH 7.5, at 40° C. and 75% RH
From the text: A Gradient HPLC method was used to analyze impurities in formulations using a YMC-Pack Pro C18 column (100×4.6 mm, S-3 μm 12 nm). Good separation was obtained for all the impurities. • Amine impurity: (1S,2S,3R,5S)-3-(7-amino-5-(propylsulfanyl)-3H-[1,2,3]triazolo[4,5-d]pyrimidin-3-yl)-5-(2-hydroxyethoxy)cyclopentane-1,2-diol. This is a process related degradant impurity. • Regiomer impurity: (1S, 2S, 3R, 5S)-3-((3-((1R,2S)-2-(3,4-Difluorophenyl)cyclopropyl)-5-(propylsulfanyl)-3H-[1,2,3]triazolo[4,5-d]pyrimidin-7-yl)amino)-5-(2-hydroxyethoxy)cyclopentane-1,2-diol. This is a process related degradant impurity. • Acetal impurity: 2-[[(3aR,4S,6S,6aS)-6-[7-[1R,2S)-2-(3,4-difluorophenyl)-cyclopropyl]amino]-5-(propylsulfanyl)-3H-[1,2,3]triazolo-[4,5-d]pyrimidin-3-yl]-2,2-dimethyltetrahydro-2H-3aHcyclopenta[d][1,3]dioxol-4-yl]oxy]ethan-1-ol.
First HPβCD was dissolved in a phosphate buffer solution of pH 7.5 prepared separately in water. […] The solution was filtered through a 0.22 micrometer filter and filled in USP Type I amber colored glass vials. The vials were stoppered and stored. All precautions were taken during manufacturing, such as N2 purging and avoiding direct exposure to light.

[2] = Impact of packaging on stability, HPβCD 32.5% w/w, 5 mM pH 7.5 phosphate buffer, 40° C./75% RH; settings: for Assay: in %
Method: To study the potential impact of the packaging material on the stability of the ticagrelor-cyclodextrin inclusion complex a composition with 32.5% w/w HPβCD was prepared with procedures and precaution's similar to previous trials, samples were stored in transparent clear glass vials and amber colored glass vials at a temperature of 40° C./75% RH.

[3] = Maximum solubility of ticagrelor in HPβCD solution without heat; settings: aqueous with cosolvent or surfactant or cyclodextrin, read-out: Ticagrelor mg/ml (maximum solubility)
From the text: In a further example, the maximum solubility of ticagrelor in an HPβCD solution, without the use of heat, was investigated.

[4] = Dilution of a concentrated ticagrelor vial
From the text: However, this was not possible with a 0.9 w/v % NaCl solution as diluent for the concentrated ticagrelor solution.

[5] = pH 7.5, T = 4 weeks, 40° C./75% RH
[6] = pH 7.5, T = 8 weeks, 40° C./75% RH
[7] = pH 7.5, T = 12 weeks, 40° C./75% RH
[8] = pH 7.5, T = 24 Weeks, 40° C./75% RH
[9] = Amber colour USP Type I Glass vials, 1 M
[10] = Amber colour USP Type I Glass vials, 2 M
[11] = Amber colour USP Type I Glass vials, 3 M
[12] = Amber colour USP Type I Glass vials, T0
[13] = Clear USP Type I Glass vials, 1 M
[14] = Clear USP Type I Glass vials, 2 M
[15] = Clear USP Type I Glass vials, 3 M
[16] = Clear USP Type I Glass vials, T0

CCCSc1nc(N[C@@H]2C[C@H]2c2ccc(F)c(F)c2)c2nnn([C@@H]3C[C@H](OCCO)[C@@H](O)[C@H]3O)c2n1 [Ticagrelor, (1S,2S,3R,5S)-3-{7-[(1R,2S)-2-(3,4-difluorophenyl)cyclopropylamino]5-(propylthio)-3H-(1,2,3)triazolo (4,5-D)pyrimidin-3-yl}-5-(2 hydroxyethoxy)cyclopentane-1,2-diol]
Storage stability ([1]; 40° C. and 75% Relative Humidity): good storage stability
Acetal impurity ([1]; pH 7.5, T = 0): 0.05%
Amine impurity ([1]; pH 7.5, T = 0): 0.04%
Assay Ticagrelor ([1]; pH 7.5, T = 0): 104.27%
Regiomer impurity ([1]; pH 7.5, T = 0): 0.00%
Sum Impurities >0.05 ([1]; pH 7.5, T = 0): 0.11%
Total Impurities ([1]; pH 7.5, T = 0): 0.31%
Triol impurity ([1]; pH 7.5, T = 0): 0.04%
Acetal impurity [1, 5]: 0.05%
Amine impurity [1, 5]: 0.05%
Assay Ticagrelor [1, 5]: 104.47%
Regiomer impurity [1, 5]: 0.01%
Sum Impurities >0.05 [1, 5]: 0.14%
Total Impurities [1, 5]: 0.32%
Triol impurity [1, 5]: 0.05%
Acetal impurity [1, 6]: 0.05%
Amine impurity [1, 6]: 0.05%
Assay Ticagrelor [1, 6]: 102.59%
Regiomer impurity [1, 6]: 0.04%
Sum Impurities >0.05 [1, 6]: 0.15%
Total Impurities [1, 6]: 0.29%
Triol impurity [1, 6]: 0.05%
Acetal impurity [1, 7]: 0.05%
Amine impurity [1, 7]: 0.05%
Assay Ticagrelor [1, 7]: 102.31%
Regiomer impurity [1, 7]: 0.08%
Sum Impurities >0.05 [1, 7]: 0.23%
Total Impurities [1, 7]: 0.41%
Triol impurity [1, 7]: 0.04%
Acetal impurity [1, 8]: 0.05%
Amine impurity [1, 8]: 0.07%
Assay Ticagrelor [1, 8]: 104.39%
Regiomer impurity [1, 8]: 0.16%
Sum Impurities >0.05 [1, 8]: 0.33%
Total Impurities [1, 8]: 0.35%
Triol impurity [1, 8]: 0.05%
Acetal impurity [2, 9]: 0.05%
Amine impurity [2, 9]: 0.04%
Description [2, 9]: clear
Regiomer [2, 9]: 0.01%
Sum Impurities >0.05 [2, 9]: 0.05%
Total impurity [2, 9]: 0.22%
Triol impurity [2, 9]: 0.02%
pH [2, 9]: 7.70
Assay [2, 9]: 100.24
Acetal impurity [2, 10]: 0.04%
Amine impurity [2, 10]: 0.04%
Description [2, 10]: clear
Regiomer [2, 10]: 0.02%
Sum Impurities >0.05 [2, 10]: 0.00%
Total impurity [2, 10]: 0.28%
Triol impurity [2, 10]: 0.04%
pH [2, 10]: 7.69
Assay [2, 10]: 99.89
Acetal impurity [2, 11]: 0.05%
Amine impurity [2, 11]: 0.06%
Description [2, 11]: clear
Regiomer [2, 11]: 0.04%
Sum Impurities >0.05 [2, 11]: 0.16%
Total impurity [2, 11]: 0.33%
Triol impurity [2, 11]: 0.05%
pH [2, 11]: 7.66
Assay [2, 11]: 98.93
Acetal impurity [2, 12]: 0.05%
Amine impurity [2, 12]: 0.04%
Description [2, 12]: clear
Regiomer [2, 12]: 0.00%
Sum Impurities >0.05 [2, 12]: 0.18%
Total impurity [2, 12]: 0.40%
Triol impurity [2, 12]: 0.04%
pH [2, 12]: 7.66
Assay [2, 12]: 98.34
Acetal impurity [2, 13]: 0.04%
Amine impurity [2, 13]: 0.04%
Description [2, 13]: clear
Regiomer [2, 13]: 0.01%
Sum Impurities >0.05 [2, 13]: 0.00%
Total impurity [2, 13]: 0.22%
Triol impurity [2, 13]: 0.03%
pH [2, 13]: 7.65
Assay [2, 13]: 101.71
Acetal impurity [2, 14]: 0.04%
Amine impurity [2, 14]: 0.04%
Description [2, 14]: clear
Regiomer [2, 14]: 0.02%
Sum Impurities >0.05 [2, 14]: 0.05%
Total impurity [2, 14]: 0.28%
Triol impurity [2, 14]: 0.05%
pH [2, 14]: 7.63
Assay [2, 14]: 99.69
Acetal impurity [2, 15]: 0.05%
Amine impurity [2, 15]: 0.06%
Description [2, 15]: clear
Regiomer [2, 15]: 0.04%
Sum Impurities >0.05 [2, 15]: 0.16%
Total impurity [2, 15]: 0.33%
Triol impurity [2, 15]: 0.05%
pH [2, 15]: 7.58
Assay [2, 15]: 98.25
Acetal impurity [2, 16]: 0.05%
Amine impurity [2, 16]: 0.04%
Description [2, 16]: clear
Regiomer [2, 16]: 0.00%
Sum Impurities >0.05 [2, 16]: 0.22%
Total impurity [2, 16]: 0.40%
Triol impurity [2, 16]: 0.05%
pH [2, 16]: 7.65
Assay [2, 16]: 98.34
solubility ([3]; HPβCD solution 17% w/w, HPβCD 17% w/W): 4 mg/mL (≈ 7.65 mM)
solubility ([3]; HPβCD solution 22.5% w/w, HPβCD 22.5% w/W): 5 mg/mL (≈ 9.57 mM)
solubility ([3]; HPβCD solution 30% w/w, HPβCD 30% w/W): 8 mg/mL (≈ 15.3 mM)
solubility ([3]; HPβCD solution 33% w/w, HPβCD 33% w/W): 9 mg/mL (≈ 17.2 mM)
solubility ([3]; HPβCD solution 40% w/w, HPβCD 40% w/W): 13 mg/mL (≈ 24.9 mM)
Clear solution on dilution ([4]; 0.9 w/v % NaCl solution as diluent): not possible
Appearance after dilution ([4]; 1 vial of 8 ml, 65 mg ticagrelor, about 3 g HPβCD, diluted with 25 ml 5 w/v % dextrose): clear solution
